The structures appear in SMILES notation.

Data set [1] can be described thus: Growth inhibition of mouse NIH/3T3 cells at 30 uM after 72 hrs by MTT assay relative to control. It counts as cell-based, NIH3T3. To be noted: read-out: GI. (Tetrazolium dyes change colour on reduction, which living cells bring about.)
Data set [2] deals with MCF7. The experiment in a line: Growth inhibition of human MCF7 cells at 30 uM after 72 hrs by MTT assay relative to control. The data set is classed as functional. The conditions noted are these: MCF7, 72 h, read-out: GI.
The test system of data set [3] is MCF7. Nature of the data set: Antiproliferative activity against human MCF7 cells after 72 hrs by MTT assay. The data set is classed as functional, cell-based. To be noted: MCF7, 72 h.
Data set [4] deals with A2780. The experiment in a line: Growth inhibition of human A2780 cells at 10 uM after 72 hrs by MTT assay relative to control. The data set is classed as functional. To be noted: A2780, 72 h, read-out: GI.
The subject of data set [5] is A2780. The experiment in a line: Antiproliferative activity against human A2780 cells after 72 hrs by MTT assay. The data set is classed as functional, cell-based. To be noted: A2780, 72 h.
In data set [6] the test system is HeLa. Nature of the data set: Growth inhibition of human HeLa cells at 10 uM after 72 hrs by MTT assay relative to control. The conditions noted are these: read-out: GI. It counts as functional.
Data set [7] has as its system MCF7. The experiment in a line: Growth inhibition of human MCF7 cells at 10 uM after 72 hrs by MTT assay relative to control. To be noted: MCF7, 72 h, read-out: GI. It counts as functional.
For data set [8], the system named is HeLa. The experiment in a line: Antiproliferative activity against human HeLa cells after 72 hrs by MTT assay. The data set is classed as functional, cell-based.
The nature of data set [9]: Growth inhibition of mouse NIH/3T3 cells at 10 uM after 72 hrs by MTT assay relative to control. The conditions noted are these: read-out: GI. The data set is classed as cell-based, NIH3T3.
Data set [10] has as its system A2780. Nature of the data set: Growth inhibition of human A2780 cells at 30 uM after 72 hrs by MTT assay relative to control. The data set is classed as functional. To be noted: A2780, 72 h, read-out: GI.
In data set [11] the test system is HeLa. The experiment in a line: Growth inhibition of human HeLa cells at 30 uM after 72 hrs by MTT assay relative to control. It counts as functional. The conditions noted are these: read-out: GI.

Broadly, the IC50 is the concentration needed to halve the response being measured. High values mean weaker potency in that assay, low ones greater potency in that assay. `CCC[C@H]1[C@@H]2CCc3cc(OCc4cn([C@@H]5O[C@H](COC(C)=O)[C@@H](OC(C)=O)[C@H](OC(C)=O)[C@H]5OC(C)=O)nn4)ccc3[C@H]2CC[C@]1(C)/C=N/O`: in data set [1], the inhibition at 72 h, 30 µM is 28.4%. The inhibition of growth at 30 µM is 67.7% with MCF7 [2], 76.7% with A2780 [10] and 40% with HeLa [11]. Also, the IC50 was 10.7 µM with MCF7 [3], 5.3 µM with A2780 [5] and over 30 µM with HeLa [8]. In addition, the inhibition of growth at 10 µM in the data set with A2780 [4] stood at 69.5%; in the data set with HeLa [6], 20.4%; in the data set on MCF7 [7] it was 46.7%. Besides, in [9], the inhibition at 72 h, 10 µM is under 20%.

Turning to `CCC[C@H]1[C@@H]2CCc3cc(OCc4cn([C@H]5O[C@H](COC(C)=O)[C@@H](OC(C)=O)[C@H](OC(C)=O)[C@@H]5OC(C)=O)nn4)ccc3[C@H]2CC[C@]1(C)/C=N/O`, the inhibition at 72 h, 30 µM in [1] is 34.8%. In addition, the inhibition of growth at 30 µM in the data set on MCF7 [2] turned out to be 65.9%; in the data set on A2780 [10] it was 86.4%; with HeLa [11] it was 89.6%. The figures for the IC50 in the data set on MCF7 [3], in the data set on A2780 [5] and in the data set with HeLa [8] were 9.4 µM, 6.6 µM and 8.9 µM, respectively. The inhibition of growth at 10 µM in the data set with A2780 [4] was determined as 69.5%; in the data set with HeLa [6], 52.4%; in the data set on MCF7 [7] it was 53.9%. Further, the inhibition at 72 h, 10 µM in data set [9] worked out at 27.3%.

Take `CCC[C@H]1[C@@H]2CCc3cc(OCc4cn(C[C@H]5O[C@H](OC)[C@H](OC(=O)c6ccccc6)[C@@H](OC(=O)c6ccccc6)[C@@H]5OC(=O)c5ccccc5)nn4)ccc3[C@H]2CC[C@]1(C)CO`: the inhibition of growth at 30 µM in the data set on MCF7 [2], in the data set with A2780 [10] and in the data set with HeLa [11] was under 20% each time. Further, the inhibition of growth at 10 µM in the data set with A2780 [4], in the data set with HeLa [6] and in the data set with MCF7 [7] was under 20% each time.

Turning to `CCC[C@H]1[C@@H]2CCc3cc(OCc4cn([C@@H]5O[C@H](COC(C)=O)[C@H](OC(C)=O)[C@H](OC(C)=O)[C@H]5OC(C)=O)nn4)ccc3[C@H]2CC[C@]1(C)/C=N/O`, in data set [1], the inhibition at 72 h, 30 µM came out at 25.5%. In addition, the values for the inhibition of growth at 30 µM in the data set on MCF7 [2], in the data set on A2780 [10] and with HeLa [11] were 71.5%, 85.2% and 61.9%, respectively. In addition, the IC50 was found to be 8 µM with MCF7 [3], 8.8 µM in the data set on A2780 [5] and 20.5 µM in the data set with HeLa [8]. The inhibition of growth at 10 µM is 59.3% in the data set on A2780 [4], 31.5% with HeLa [6] and 59.1% with MCF7 [7]. In addition, in data set [9], the inhibition at 72 h, 10 µM was under 20%.

With `CCC[C@H]1[C@@H]2CCc3cc(OCc4cn([C@@H]5O[C@H](CO)[C@@H](O)[C@H](O)[C@H]5O)nn4)ccc3[C@H]2CC[C@]1(C)CO`, the inhibition of growth at 30 µM in the data set on MCF7 [2], in the data set on A2780 [10] and with HeLa [11] was under 20% in each case. For the same molecule, the inhibition of growth at 10 µM with A2780 [4], in the data set on HeLa [6] and with MCF7 [7] was under 20% each time.

For `CCC[C@H]1[C@@H]2CCc3cc(OCc4cn(C[C@H]5O[C@H](OC)[C@@H](OC(=O)c6ccccc6)[C@@H](OC(=O)c6ccccc6)[C@@H]5OC(=O)c5ccccc5)nn4)ccc3[C@H]2CC[C@]1(C)CO`, the inhibition of growth at 30 µM in the data set on MCF7 [2], with A2780 [10] and with HeLa [11] was under 20% throughout. Moreover, the inhibition of growth at 10 µM in the data set with A2780 [4], with HeLa [6] and in the data set on MCF7 [7] was under 20% each time.

As for `CCC[C@H]1[C@@H]2CCc3cc(OCc4cn(C[C@H]5O[C@@H](OC)[C@H](OC(=O)c6ccccc6)[C@@H]5OC(=O)c5ccccc5)nn4)ccc3[C@H]2CC[C@]1(C)/C=N/O`, the inhibition of growth at 30 µM with MCF7 [2], in the data set with A2780 [10] and with HeLa [11] was under 20% throughout. In addition, the inhibition of growth at 10 µM was under 20% in the data set with A2780 [4], 24.3% in the data set with HeLa [6] and under 20% in the data set with MCF7 [7].

`CCC[C@H]1[C@@H]2CCc3cc(OCc4cn([C@H]5O[C@H](COC(C)=O)[C@@H](OC(C)=O)[C@H](OC(C)=O)[C@@H]5OC(C)=O)nn4)ccc3[C@H]2CC[C@]1(C)CO`: the results for the inhibition of growth at 30 µM with MCF7 [2], with A2780 [10] and with HeLa [11] were 54.3%, 36.5% and 41.5%, respectively. Also, the inhibition of growth at 10 µM in the data set on A2780 [4] stood at 34.9%; in the data set on HeLa [6], 51.9%; in the data set on MCF7 [7] it was 26.3%.

Consider `CCC[C@H]1[C@@H]2CCc3cc(OCc4cn([C@@H]5O[C@H](COC(C)=O)[C@@H](OC(C)=O)[C@H](OC(C)=O)[C@H]5OC(C)=O)nn4)ccc3[C@H]2CC[C@]1(C)CO`, for which the inhibition of growth at 30 µM in the data set with MCF7 [2] was found to be 45.5%; in the data set on A2780 [10] it was 19.5%; with HeLa [11], 23.9%. In addition, the values for the inhibition of growth at 10 µM in the data set with A2780 [4], with HeLa [6] and with MCF7 [7] were 21%, 34.5% and 27.4%, respectively.

As for `CCC[C@H]1[C@@H]2CCc3cc(OCc4cn([C@@H]5O[C@H](COC(C)=O)[C@H](OC(C)=O)[C@H](OC(C)=O)[C@H]5OC(C)=O)nn4)ccc3[C@H]2CC[C@]1(C)CO`, the inhibition of growth at 30 µM in the data set on MCF7 [2] is 61.9%; with A2780 [10] it was 32.7%; in the data set on HeLa [11], 31.8%. The values for the inhibition of growth at 10 µM in the data set with A2780 [4], with HeLa [6] and with MCF7 [7] were under 20%, 23.9% and under 20%, respectively.

As for `CCC[C@H]1[C@@H]2CCc3cc(OCc4cn(C[C@H]5O[C@H](OC)[C@H](OC(=O)c6ccccc6)[C@@H](OC(=O)c6ccccc6)[C@@H]5OC(=O)c5ccccc5)nn4)ccc3[C@H]2CC[C@]1(C)/C=N/O`, the figures for the inhibition of growth at 30 µM in the data set with MCF7 [2], in the data set with A2780 [10] and with HeLa [11] were under 20%, 45.7% and under 20%, respectively. Besides, the results for the inhibition of growth at 10 µM with A2780 [4], in the data set with HeLa [6] and in the data set on MCF7 [7] were 28.4%, under 20% and under 20%, respectively.

For `CCC[C@H]1[C@@H]2CCc3cc(OCc4cn([C@@H]5O[C@H](CO)[C@@H](O)[C@H](O)[C@H]5O)nn4)ccc3[C@H]2CC[C@]1(C)/C=N/O`, the inhibition of growth at 30 µM with MCF7 [2] was under 20%; in the data set on A2780 [10] it was 57.9%; in the data set with HeLa [11] it was 31.5%. In addition, the IC50 is over 30 µM with MCF7 [3], 27.4 µM with A2780 [5] and over 30 µM with HeLa [8]. For the same molecule, the inhibition of growth at 10 µM with A2780 [4], with HeLa [6] and in the data set with MCF7 [7] was under 20% each time.

`CCC[C@H]1[C@@H]2CCc3cc(OCc4cn(C[C@H]5O[C@@H](OC)[C@H](OC(=O)c6ccccc6)[C@@H]5OC(=O)c5ccccc5)nn4)ccc3[C@H]2CC[C@]1(C)CO`: the inhibition of growth at 30 µM in the data set on MCF7 [2], in the data set with A2780 [10] and in the data set on HeLa [11] was under 20% each time. For the same molecule, the inhibition of growth at 10 µM with A2780 [4], with HeLa [6] and in the data set with MCF7 [7] was under 20% each time.

As for `CCC[C@H]1[C@@H]2CCc3cc(OCc4cn(C[C@H]5O[C@H](OC)[C@@H](OC(=O)c6ccccc6)[C@@H](OC(=O)c6ccccc6)[C@@H]5OC(=O)c5ccccc5)nn4)ccc3[C@H]2CC[C@]1(C)/C=N/O`, the inhibition of growth at 30 µM with MCF7 [2], in the data set on A2780 [10] and in the data set with HeLa [11] was under 20% throughout. In addition, the inhibition of growth at 10 µM with A2780 [4], with HeLa [6] and with MCF7 [7] was under 20% throughout.

The record behind these values is ChEMBL document CHEMBL4014294, “Synthesis and in vitro investigation of potential antiproliferative monosaccharide-d-secoestrone bioconjugates” (Bioorg Med Chem Lett, 2017).
